The record followed here is ChEMBL document CHEMBL5465560, “Selectivity Literature for EUbOPEN Chemogenomic Library” (2024).

Assay [1] has as its target Activin receptor type-2A (Homo sapiens) (UniProt P27037). Description: Selectivity interaction (Ambit KINOMEscan and KiNATiv profiling in Jurkat cells) EUB0000090b ACVR2A. Particulars: at 1 µM. Type of assay: cell-based.
For assay [2], the target named is STE20/SPS1-related proline-alanine-rich protein kinase (Homo sapiens) (UniProt Q9UEW8). Put plainly: Selectivity interaction (KinomeScan (DiscoverX)) EUB0000607a STK39. Particulars: at 10 µM.
In assay [3] the target is Tyrosine-protein kinase receptor UFO (Homo sapiens) (UniProt P30530). Description: Selectivity interaction (SelectScreen profiling (Invitrogen)) EUB0000607a AXL. The note with it: at 2 µM.
Tyrosine-protein kinase receptor UFO (Homo sapiens), sequence (P30530 whole entry): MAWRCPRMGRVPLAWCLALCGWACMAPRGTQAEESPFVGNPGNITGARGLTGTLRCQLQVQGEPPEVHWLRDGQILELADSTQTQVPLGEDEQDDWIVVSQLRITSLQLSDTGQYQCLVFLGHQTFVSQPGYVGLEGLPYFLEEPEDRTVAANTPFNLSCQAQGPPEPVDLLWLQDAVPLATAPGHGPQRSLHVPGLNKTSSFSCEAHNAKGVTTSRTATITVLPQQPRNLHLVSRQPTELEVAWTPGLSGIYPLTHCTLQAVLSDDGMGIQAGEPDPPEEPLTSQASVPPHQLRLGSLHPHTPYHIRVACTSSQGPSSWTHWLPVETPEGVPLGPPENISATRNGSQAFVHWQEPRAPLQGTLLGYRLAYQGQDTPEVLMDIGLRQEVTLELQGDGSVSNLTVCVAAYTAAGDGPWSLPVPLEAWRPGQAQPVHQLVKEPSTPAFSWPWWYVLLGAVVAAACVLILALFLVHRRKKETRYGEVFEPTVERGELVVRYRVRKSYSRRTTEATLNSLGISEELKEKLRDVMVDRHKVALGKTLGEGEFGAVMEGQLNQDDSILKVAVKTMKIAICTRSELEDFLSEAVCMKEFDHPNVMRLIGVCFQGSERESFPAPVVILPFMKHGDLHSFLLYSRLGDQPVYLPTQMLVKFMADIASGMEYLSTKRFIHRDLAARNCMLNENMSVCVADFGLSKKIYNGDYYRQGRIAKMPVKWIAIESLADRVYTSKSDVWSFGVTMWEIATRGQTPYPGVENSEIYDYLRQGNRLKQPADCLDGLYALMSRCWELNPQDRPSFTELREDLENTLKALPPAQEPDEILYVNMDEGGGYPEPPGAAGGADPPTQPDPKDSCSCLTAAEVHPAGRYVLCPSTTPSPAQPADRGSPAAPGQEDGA
In assay [4] the target is Cyclin-dependent kinase 2 (Homo sapiens, UniProt P24941). Put plainly: Selectivity interaction (KinomeScan (DiscoverX)) EUB0001079a CDK2. Particulars: at 1 µM.
Assay [5] has as its target Fibroblast growth factor receptor 1 (Homo sapiens, UniProt P11362). Description: Selectivity interaction (KinomeScan (DiscoverX)) EUB0001079a FGFR1. The note with it: at 1 µM.
Assay [6] has as its target MAP kinase-interacting serine/threonine-protein kinase 2 (Homo sapiens, UniProt Q9HBH9). Description: Selectivity interaction (KinomeScan (DiscoverX)) EUB0001619a MKNK2. The note with it: at 1 µM.
Assay [7] concerns the target Protein kinase C theta type (Homo sapiens, UniProt Q04759). Description: Selectivity interaction (Kinase panel (33PanQinase(R) Activity Assay)) EUB0000877a PRKCQ.
In assay [8] the target is Cyclin-dependent kinase 17 (Homo sapiens) (UniProt Q00537). Description: Selectivity interaction (ActivX KiNativ screen (kinase selectivity in THP-1 cell lysates)) EUB0000639a CDK17. The assay is classed as subcellular. The note with it: lysate, at 0.04 µM.
The target in assay [9] is Serine/threonine-protein kinase 26 (Homo sapiens, UniProt Q9P289). Put plainly: Selectivity interaction (ActivX KiNativ screen (kinase selectivity in THP-1 cell lysates)) EUB0000639a STK26. Type of assay: subcellular. Particulars: lysate, at 0.01 µM.
Serine/threonine-protein kinase 26, sequence (Q9P289 2-416 limits assumed): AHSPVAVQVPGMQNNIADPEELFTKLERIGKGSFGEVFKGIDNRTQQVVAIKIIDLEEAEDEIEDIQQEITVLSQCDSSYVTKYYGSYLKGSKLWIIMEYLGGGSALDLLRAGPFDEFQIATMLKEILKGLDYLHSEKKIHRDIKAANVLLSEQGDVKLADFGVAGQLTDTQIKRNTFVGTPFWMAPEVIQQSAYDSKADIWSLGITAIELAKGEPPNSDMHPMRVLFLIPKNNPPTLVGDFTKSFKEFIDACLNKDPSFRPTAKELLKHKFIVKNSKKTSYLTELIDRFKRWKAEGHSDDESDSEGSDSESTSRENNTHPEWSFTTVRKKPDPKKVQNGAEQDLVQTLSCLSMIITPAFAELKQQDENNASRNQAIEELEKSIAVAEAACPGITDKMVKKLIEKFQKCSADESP
The target of assay [10] is Mast/stem cell growth factor receptor Kit (Homo sapiens, UniProt P10721). Put plainly: Selectivity interaction (Kinase screening (Nanosyn)) EUB0000604a KIT.
Assay [11] concerns the target Dual specificity protein kinase CLK2 (Homo sapiens, UniProt P49760). Put plainly: Selectivity interaction (ProQinase) EUB0000171b CLK2.
Assay [12] deals with Non-receptor tyrosine-protein kinase TYK2 (Homo sapiens, UniProt P29597). Description: Selectivity interaction (KinomeScan (DiscoverX)) EUB0001868a TYK2. The note with it: at 1 µM.
Assay [13] addresses Serine/threonine-protein kinase 25 (Homo sapiens) (UniProt O00506). Description: Selectivity interaction (KinomeScan (DiscoverX)) EUB0000045b STK25.
Assay [14] relates to Proto-oncogene tyrosine-protein kinase receptor Ret (Homo sapiens), P07949 [M918T]. Put plainly: (§1) Selectivity interaction (KinomeScan (DiscoverX)) EUB0000595a RET. Particulars: at 10 µM.
Proto-oncogene tyrosine-protein kinase receptor Ret (Homo sapiens), P07949 [M918T], sequence (P07949 whole entry M918T): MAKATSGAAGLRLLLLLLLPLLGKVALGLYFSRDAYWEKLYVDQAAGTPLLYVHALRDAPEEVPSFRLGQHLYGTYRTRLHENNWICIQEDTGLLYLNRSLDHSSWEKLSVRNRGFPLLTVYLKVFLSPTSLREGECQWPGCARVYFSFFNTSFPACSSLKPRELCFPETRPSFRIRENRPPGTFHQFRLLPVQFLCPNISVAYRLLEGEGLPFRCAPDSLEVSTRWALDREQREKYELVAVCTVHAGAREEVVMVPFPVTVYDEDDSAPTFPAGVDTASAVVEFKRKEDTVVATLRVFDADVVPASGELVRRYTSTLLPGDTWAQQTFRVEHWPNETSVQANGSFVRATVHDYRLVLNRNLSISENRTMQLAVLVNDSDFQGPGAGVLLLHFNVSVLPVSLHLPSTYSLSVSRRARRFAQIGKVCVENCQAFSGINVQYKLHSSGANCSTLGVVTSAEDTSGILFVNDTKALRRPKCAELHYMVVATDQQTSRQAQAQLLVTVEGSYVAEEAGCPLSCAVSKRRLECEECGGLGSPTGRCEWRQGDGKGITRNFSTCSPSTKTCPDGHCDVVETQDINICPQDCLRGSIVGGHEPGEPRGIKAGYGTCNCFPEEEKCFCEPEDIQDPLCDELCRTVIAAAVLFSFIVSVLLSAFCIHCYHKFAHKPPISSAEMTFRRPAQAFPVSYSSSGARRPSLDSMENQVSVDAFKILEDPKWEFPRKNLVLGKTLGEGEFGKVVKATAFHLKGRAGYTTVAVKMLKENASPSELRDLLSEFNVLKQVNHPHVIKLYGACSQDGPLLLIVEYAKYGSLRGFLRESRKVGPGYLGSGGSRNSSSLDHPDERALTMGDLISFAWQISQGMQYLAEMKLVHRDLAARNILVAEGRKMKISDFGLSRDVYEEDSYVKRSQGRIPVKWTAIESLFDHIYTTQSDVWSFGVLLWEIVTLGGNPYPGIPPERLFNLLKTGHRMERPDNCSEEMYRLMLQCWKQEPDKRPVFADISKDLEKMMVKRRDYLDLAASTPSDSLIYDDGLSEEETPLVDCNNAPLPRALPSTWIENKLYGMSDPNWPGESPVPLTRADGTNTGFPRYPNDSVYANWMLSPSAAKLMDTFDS
Assay [15] has as its system Proto-oncogene tyrosine-protein kinase receptor Ret (Homo sapiens), P07949 [V804L]. The assay is described as §1. The note with it: at 10 µM.
Assay [16] concerns the target Proto-oncogene tyrosine-protein kinase receptor Ret (Homo sapiens, UniProt P07949). The assay is described as §1. Particulars: at 10 µM.
Assay [17] has as its target T1, Mitogen-activated protein kinase kinase kinase 19 (Homo sapiens) (UniProt Q56UN5).
T1 sequence (whole entry): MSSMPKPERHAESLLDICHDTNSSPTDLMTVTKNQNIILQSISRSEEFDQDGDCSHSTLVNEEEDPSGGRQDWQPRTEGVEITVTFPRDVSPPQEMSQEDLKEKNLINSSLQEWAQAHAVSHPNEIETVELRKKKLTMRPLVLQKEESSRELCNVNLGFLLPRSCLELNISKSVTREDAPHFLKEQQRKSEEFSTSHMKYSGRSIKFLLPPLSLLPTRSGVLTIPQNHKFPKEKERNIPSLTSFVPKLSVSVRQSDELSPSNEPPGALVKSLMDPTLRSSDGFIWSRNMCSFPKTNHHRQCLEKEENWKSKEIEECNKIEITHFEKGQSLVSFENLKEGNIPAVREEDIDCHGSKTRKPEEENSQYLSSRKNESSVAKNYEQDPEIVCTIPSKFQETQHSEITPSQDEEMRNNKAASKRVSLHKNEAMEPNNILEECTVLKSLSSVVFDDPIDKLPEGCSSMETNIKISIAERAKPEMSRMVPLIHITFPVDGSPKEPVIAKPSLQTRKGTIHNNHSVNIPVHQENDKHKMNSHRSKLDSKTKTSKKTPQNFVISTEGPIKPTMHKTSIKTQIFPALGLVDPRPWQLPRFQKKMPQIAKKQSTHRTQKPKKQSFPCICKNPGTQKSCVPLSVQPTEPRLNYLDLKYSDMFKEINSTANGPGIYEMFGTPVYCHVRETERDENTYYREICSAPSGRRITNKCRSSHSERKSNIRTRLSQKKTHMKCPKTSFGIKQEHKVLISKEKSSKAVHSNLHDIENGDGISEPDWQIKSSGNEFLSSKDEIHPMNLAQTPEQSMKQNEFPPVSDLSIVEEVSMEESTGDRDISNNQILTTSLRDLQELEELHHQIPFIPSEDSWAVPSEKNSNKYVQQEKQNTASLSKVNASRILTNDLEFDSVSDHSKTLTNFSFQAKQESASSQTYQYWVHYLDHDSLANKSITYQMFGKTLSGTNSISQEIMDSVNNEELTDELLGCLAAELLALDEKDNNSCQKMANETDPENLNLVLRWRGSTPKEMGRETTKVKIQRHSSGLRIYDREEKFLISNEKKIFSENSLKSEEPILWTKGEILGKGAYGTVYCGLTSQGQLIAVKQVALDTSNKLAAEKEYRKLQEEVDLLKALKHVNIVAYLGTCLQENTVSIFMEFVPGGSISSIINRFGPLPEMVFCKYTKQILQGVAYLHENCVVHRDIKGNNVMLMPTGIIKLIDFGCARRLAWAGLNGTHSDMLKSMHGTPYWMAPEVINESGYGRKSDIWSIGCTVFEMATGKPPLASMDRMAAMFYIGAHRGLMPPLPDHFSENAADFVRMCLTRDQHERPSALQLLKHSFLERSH
Put plainly: Selectivity interaction (KinomeScan (DiscoverX)) EUB0000595a MAP3K19. Particulars: at 10 µM.

Bounds are passed on as bounds.

Dual specificity protein kinase CLK2, sequence (P49760 whole entry, looked up): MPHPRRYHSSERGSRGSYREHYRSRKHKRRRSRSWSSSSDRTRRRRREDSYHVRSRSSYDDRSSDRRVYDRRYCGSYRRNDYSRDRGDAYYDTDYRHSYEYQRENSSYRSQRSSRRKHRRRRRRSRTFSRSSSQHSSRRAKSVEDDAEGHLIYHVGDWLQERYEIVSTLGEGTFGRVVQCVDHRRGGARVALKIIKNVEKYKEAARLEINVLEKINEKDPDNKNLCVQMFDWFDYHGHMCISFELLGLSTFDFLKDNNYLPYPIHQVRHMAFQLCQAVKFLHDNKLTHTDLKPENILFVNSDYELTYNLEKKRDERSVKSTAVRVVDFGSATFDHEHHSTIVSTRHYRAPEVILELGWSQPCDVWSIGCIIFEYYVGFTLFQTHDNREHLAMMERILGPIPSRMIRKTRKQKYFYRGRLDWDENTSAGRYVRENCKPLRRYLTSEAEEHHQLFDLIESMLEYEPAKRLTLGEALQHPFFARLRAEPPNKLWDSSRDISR
Serine/threonine-protein kinase 25 (Homo sapiens), sequence (O00506 whole entry, looked up): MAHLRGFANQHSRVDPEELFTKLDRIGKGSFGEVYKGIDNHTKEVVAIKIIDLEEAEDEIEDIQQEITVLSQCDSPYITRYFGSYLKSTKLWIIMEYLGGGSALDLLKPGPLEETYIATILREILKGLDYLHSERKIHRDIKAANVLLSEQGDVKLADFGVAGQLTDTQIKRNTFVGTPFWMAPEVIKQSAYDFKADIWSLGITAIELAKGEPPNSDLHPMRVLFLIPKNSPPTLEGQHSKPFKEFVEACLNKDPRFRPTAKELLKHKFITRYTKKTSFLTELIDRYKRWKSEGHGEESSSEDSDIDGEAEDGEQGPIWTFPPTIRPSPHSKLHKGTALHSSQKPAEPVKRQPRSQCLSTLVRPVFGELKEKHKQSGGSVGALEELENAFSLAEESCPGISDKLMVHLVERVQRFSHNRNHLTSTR
Proto-oncogene tyrosine-protein kinase receptor Ret, sequence (P07949 whole entry): as the sequence (P07949 whole entry M918T) above, with T918M counted along it
Activin receptor type-2A (Homo sapiens), sequence (P27037 whole entry): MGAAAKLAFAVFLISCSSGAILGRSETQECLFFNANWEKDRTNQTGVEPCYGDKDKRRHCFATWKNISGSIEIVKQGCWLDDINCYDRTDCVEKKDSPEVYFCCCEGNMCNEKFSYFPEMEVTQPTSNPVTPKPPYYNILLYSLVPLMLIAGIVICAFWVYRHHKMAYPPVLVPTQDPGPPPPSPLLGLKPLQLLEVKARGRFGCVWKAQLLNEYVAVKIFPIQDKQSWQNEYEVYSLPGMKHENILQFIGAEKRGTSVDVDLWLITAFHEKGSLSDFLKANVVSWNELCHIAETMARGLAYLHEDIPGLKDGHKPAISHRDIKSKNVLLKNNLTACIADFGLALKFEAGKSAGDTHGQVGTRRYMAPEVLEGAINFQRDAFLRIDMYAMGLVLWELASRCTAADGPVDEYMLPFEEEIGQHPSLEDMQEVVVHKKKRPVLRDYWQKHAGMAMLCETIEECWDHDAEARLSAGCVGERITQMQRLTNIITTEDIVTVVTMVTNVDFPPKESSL
Fibroblast growth factor receptor 1, sequence (P11362 22-822 limits assumed): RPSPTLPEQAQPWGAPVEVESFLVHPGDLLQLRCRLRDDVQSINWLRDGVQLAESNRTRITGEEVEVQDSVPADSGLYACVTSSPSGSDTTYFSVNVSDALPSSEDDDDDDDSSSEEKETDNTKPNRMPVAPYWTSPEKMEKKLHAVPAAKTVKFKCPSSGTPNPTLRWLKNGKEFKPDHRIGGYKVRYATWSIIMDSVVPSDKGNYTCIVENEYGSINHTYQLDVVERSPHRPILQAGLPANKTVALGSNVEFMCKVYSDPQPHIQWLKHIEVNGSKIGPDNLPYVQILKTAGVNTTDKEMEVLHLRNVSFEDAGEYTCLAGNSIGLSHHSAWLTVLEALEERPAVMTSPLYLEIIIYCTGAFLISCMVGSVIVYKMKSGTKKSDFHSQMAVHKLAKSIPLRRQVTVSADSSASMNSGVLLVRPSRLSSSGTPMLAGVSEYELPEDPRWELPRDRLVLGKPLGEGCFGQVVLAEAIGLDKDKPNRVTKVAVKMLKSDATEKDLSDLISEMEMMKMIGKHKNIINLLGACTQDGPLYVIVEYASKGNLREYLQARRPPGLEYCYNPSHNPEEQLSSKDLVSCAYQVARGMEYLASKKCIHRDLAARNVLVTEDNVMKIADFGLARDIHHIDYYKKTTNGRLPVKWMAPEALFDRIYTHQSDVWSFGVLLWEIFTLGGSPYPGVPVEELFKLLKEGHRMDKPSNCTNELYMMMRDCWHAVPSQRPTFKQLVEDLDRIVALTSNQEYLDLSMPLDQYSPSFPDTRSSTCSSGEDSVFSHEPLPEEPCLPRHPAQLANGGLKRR
Proto-oncogene tyrosine-protein kinase receptor Ret (Homo sapiens), P07949 [V804L], sequence (P07949 whole entry V804L): as the sequence (P07949 whole entry M918T) above, with V804L, T918M counted along it

`CN(C)C/C=C/C(=O)Nc1ccc(C(=O)N2CCCC(Nc3ncc(Cl)c(-c4c[nH]c5ccccc45)n3)C2)cc1` (centres undefined) returned a % of control in assay [1] of 83%.

Molecule `CNC(=O)Nc1ccc(-c2nc(N3CC4CCC(C3)O4)c3cnn(C4CCC5(CC4)OCCO5)c3n2)cc1` returned a % of control in [2] of 100%. Moreover, the % of inhibition in assay [3] stood at 2%.

In the case of `Nc1cnc(N2CCc3cc(S(=O)(=O)Nc4c(F)cc(Cl)cc4F)cc(N4CCCC4=O)c32)nc1` [TP-020n], the % of control worked out at 100% in assay [4] and 88% in assay [5].

In the case of `N#Cc1cccc(-c2c[nH]c3ncnc(N4CCOCC4)c23)c1`, in assay [6], the % of control was 90%.

Usually IC50 stands for the point on the concentration scale where inhibition reaches its midpoint. For the molecule `CCC(=O)N1CC[C@H](Nc2ncnc3c2CN(c2cnc(OC)c(C(F)(F)F)c2)CC3)C1` [LENIOLISIB], the IC50 in assay [7] was greater than 10 µM.

With `CC[C@@H]1[C@H](F)C(=O)N[C@@H]1COc1nccc2cc(C(N)=O)c(OC)cc12` [ZIMLOVISERTIB], the % of inhibition came to 1.7% in [8] and 19.6% in assay [9].

Regarding `Cc1cnc(Nc2ccc(F)cc2Cl)nc1-c1c[nH]c(C(=O)N[C@H](CO)c2cccc(Cl)c2)c1`, in assay [10], the % of inhibition was determined as 8%.

Regarding `C=CC(=O)Nc1cccc(C(=O)Nc2ccc(Nc3cc(-c4[nH]c(SC)nc4C)ccn3)cc2)c1`, the % of control amounted to 81% in assay [11] (at 1 µM) and 51% in [11] (at 5 µM).

In assay [12], `Cc1cc(-c2ccnc(Nc3cnn(C)c3)n2)ccc1CNC(=O)N1CC(OC(C)C)C1` yielded a % of control of 47%.

Regarding `C=CC(=O)Nc1cc(-n2c(=O)ccc3cnc4ccc(-c5ccc(NS(C)(=O)=O)cc5)cc4c32)ccc1C`, the values for the % of control in [13] (at 1 µM) and in [13] (at 10 µM) were 100% and 65%, respectively.

On to `COCC(=O)NC/C=C/c1ccc2ncnc(Nc3ccc(Oc4ccc(C)nc4)c(C)c3)c2c1` [CP-724714], for which the % of control came to 77% in assay [14], 100% in assay [15], 87% in assay [16] and 100% in assay [17].
